Here are results for 99 sequences from the OligoGym collection.

Values joined by “and” are separate entries in the source; they are usually repeats but may differ in a detail not shown here. Equal values may be shown once. After the bases stand the sugars from the 5' end (letter, count) and the backbone: PS all phosphorothioate, else s phosphorothioate and o phosphodiester by linkage. Methylation of C is not given here. e = 2'-O-(2-methoxyethyl) (MOE); k = constrained ethyl (cEt); d = 2'-deoxy (DNA)

In the data set the target is MALAT1. As to conditions: ASO, A431, 0.005 µM.
In the case of AGTCTACAAGTTACAT (sugars k3 d10 k3, PS), the target mRNA inhibition came out at 3%.
In the case of TTATTTAGAGGGCCTC (sugars k3 d10 k3, PS) it was 57% and 72%.
As to TAGTTGTATTAATCTC (sugars k3 d10 k3, PS), the target mRNA inhibition was 38%.
Consider ACTGTAAACCTGTGGT (sugars k3 d10 k3, PS), for which the target mRNA inhibition was -6%.
For AGAACTAGCACCTGCA (sugars k3 d10 k3, PS), the target mRNA inhibition was 15%.
The result for CCCATAATTGTAGTTA (sugars k3 d10 k3, PS) reads 45%; that for TGCTCCTCAGTCCTAG (sugars k3 d10 k3, PS), 26%; that for CCGCCTCTTAAAGCAC (sugars k3 d10 k3, PS), -9%.
Consider CTCGCTTTCCCTGTGG (sugars k3 d10 k3, PS), for which the target mRNA inhibition worked out at 17%.
As for CCCCCCCAAGATTGCC (sugars k3 d10 k3, PS), the target mRNA inhibition is -16%.
For GATCACTTTAGAGGCT (sugars k3 d10 k3, PS), the target mRNA inhibition is -8%.
Regarding CCCCCGCCTCAGTTAC (sugars k3 d10 k3, PS), the target mRNA inhibition worked out at 28%.
For the sequence CCACTCGCTTTCCCTG (sugars k3 d10 k3, PS), the target mRNA inhibition was 41%.
For the sequence AGATTCCGTAACTTTA (sugars k3 d10 k3, PS), the target mRNA inhibition was 78% and 92%.
Take TTACCATAAGTAAGTT (sugars k3 d10 k3, PS): the target mRNA inhibition was -20%.
As for GGTTTCCTCAAGCTCC (sugars k3 d10 k3, PS), the target mRNA inhibition came to 34%.
Consider TTGCTCACATGCCAGT (sugars k3 d10 k3, PS), for which the target mRNA inhibition was 40%.
For CTTCAGGATCATTAAG (sugars k3 d10 k3, PS), the target mRNA inhibition was 3%.
Turning to TAAATTGGTTACCAAT (sugars k3 d10 k3, PS), the target mRNA inhibition stood at 25%.
For CCCTATATAAGGTCAA (sugars k3 d10 k3, PS), the target mRNA inhibition stood at 13%.
Consider GCTGCATCGAGGTGAG (sugars k3 d10 k3, PS), for which the target mRNA inhibition was found to be 24%.
For ATATTTGCCCCTCCCC (sugars k3 d10 k3, PS), the target mRNA inhibition amounted to 27%.
For TGGAAAGCGAGTTCAA (sugars k3 d10 k3, PS), the target mRNA inhibition was -4%.
The result for GAGCAGCACGGGCTGT (sugars k3 d10 k3, PS) reads 14%.
For the sequence ATTACTCTAATCACTG (sugars k3 d10 k3, PS), the target mRNA inhibition is 28%.
As to TTAACTTCCCCCAGCT (sugars k3 d10 k3, PS), the target mRNA inhibition was 0%.
CCAACTTGGAAGTTGA (sugars k3 d10 k3, PS): the target mRNA inhibition was 31%.
Take TATGGAACTTGAATGC (sugars k3 d10 k3, PS): the target mRNA inhibition worked out at 24%.
In the case of CATTTGGCCTACTCAA (sugars k3 d10 k3, PS), the target mRNA inhibition was determined as 34%.
As for CCCACCAAAGACCTCG (sugars k3 d10 k3, PS), the target mRNA inhibition was 31%.
As for ATACAAACTGCTTACA (sugars k3 d10 k3, PS), the target mRNA inhibition is -30%.
Take CCCCAGTCCTTTACAG (sugars k3 d10 k3, PS): the target mRNA inhibition worked out at 9%.
Turning to AGCTCCTGACAAATTA (sugars k3 d10 k3, PS), the target mRNA inhibition was 15%.
For AGTAAGAATCTCAGGG (sugars k3 d10 k3, PS), the target mRNA inhibition came out at 45%.
For AAAAAGTAGTTCTTCG (sugars k3 d10 k3, PS), the target mRNA inhibition was 16%.
As to GAAGAATCCCCCCCAA (sugars k3 d10 k3, PS), the target mRNA inhibition is 11%.
As for TTGCAGGGACGGTTGA (sugars k3 d10 k3, PS), the target mRNA inhibition is -10%.
Regarding GACCTGAAGTCAAGAC (sugars k3 d10 k3, PS), the target mRNA inhibition is -1%.
For TCCCTATATAAGGTCA (sugars k3 d10 k3, PS), the target mRNA inhibition was 5%.
As for GTAAGAATTAAGACCA (sugars k3 d10 k3, PS), the target mRNA inhibition was 37%.
As for CTTTATCACTCAGCTG (sugars k3 d10 k3, PS), the target mRNA inhibition amounted to 37%.
Turning to ATCAAGTCAAGCTCCT (sugars k3 d10 k3, PS), the target mRNA inhibition amounted to 11%.
On to AGGCAGTTATATTAGG (sugars k3 d10 k3, PS), for which the target mRNA inhibition amounted to 26%.
As for CTGCAGTTTCTATAGT (sugars k3 d10 k3, PS), the target mRNA inhibition was 22%.
CCCCATATAAATCCCT (sugars k3 d10 k3, PS): the target mRNA inhibition is -7%.
On to ATTTTGTCCACTGGTG (sugars k3 d10 k3, PS), for which the target mRNA inhibition was determined as 50%.
For the sequence GGATTCTAGACAGACC (sugars k3 d10 k3, PS), the target mRNA inhibition is 44%.
GGACATCTCTTCCACA (sugars k3 d10 k3, PS): the target mRNA inhibition was 24%.
The result for ACCGATTATGGATCAT (sugars k3 d10 k3, PS) reads 36%; that for CAGGCTATTACCTGAA (sugars k3 d10 k3, PS), -14%.
For the sequence AGGCAAATCGCCATGG (sugars k3 d10 k3, PS), the target mRNA inhibition is 5%.
“AGGCAAACGAAACATTGGCA (sugars e5 d10 e5, PS)”: the target mRNA inhibition was 3% and 12%.
Regarding GACCCTACTGAAGAGC (sugars k3 d10 k3, PS), the target mRNA inhibition turned out to be 32%.
In the case of CTACTTTAAGCCTTCG (sugars k3 d10 k3, PS) it was 31%; in that of ACAATCAAGTCAAGCT (sugars k3 d10 k3, PS), 15%; in that of TCTGATCATAATCTCC (sugars k3 d10 k3, PS), 39%.
Turning to GACTAAAGGCTTCAGT (sugars k3 d10 k3, PS), the target mRNA inhibition was 15%.
In the case of AGTAGGCCAGACCAAC (sugars k3 d10 k3, PS) it was 4%.
CTTGAATTACTTCCGT (sugars k3 d10 k3, PS): the target mRNA inhibition is 56% and 40%.
Turning to TACACTCACTAGAACA (sugars k3 d10 k3, PS), the target mRNA inhibition is 3%.
The result for GCAAAATGTACTCAGC (sugars k3 d10 k3, PS) reads 23%.
As for ATTAGTAGTCAAAGCA (sugars k3 d10 k3, PS), the target mRNA inhibition came to 20%.
For TAAACTCACTGCAAGG (sugars k3 d10 k3, PS), the target mRNA inhibition turned out to be 14%.
For TCCTGCATGTAAGAAT (sugars k3 d10 k3, PS), the target mRNA inhibition worked out at 15%.
Take GTCAATAGTGTAAAAC (sugars k3 d10 k3, PS): the target mRNA inhibition is 33%.
In the case of GAATGTTTCTTGTCAC (sugars k3 d10 k3, PS) it was 43%; in that of CGCACGGAAATTTTTC (sugars k3 d10 k3, PS), -17%; in that of AAGATCGCCTTCAAAT (sugars k3 d10 k3, PS), 49%.
With AAATTTTTCTACCGTT (sugars k3 d10 k3, PS), the target mRNA inhibition was -3%.
TGCCAAGCCAAGCCGC (sugars k3 d10 k3, PS): the target mRNA inhibition is 13%.
Consider GCCAAGCCGCCTGCTA (sugars k3 d10 k3, PS), for which the target mRNA inhibition came out at 20%.
As for AGCAGCGGGATCAGAA (sugars k3 d10 k3, PS), the target mRNA inhibition came to 19%.
CCTCTAAGAGACATTC (sugars k3 d10 k3, PS): the target mRNA inhibition was found to be 29%.
Regarding CTTCCCGTACTTCTGT (sugars k3 d10 k3, PS), the target mRNA inhibition was found to be 43%.
TCTAGACAGACCTAAG (sugars k3 d10 k3, PS): the target mRNA inhibition was -6%.
On to GCGGGATCAGAACAGT (sugars k3 d10 k3, PS), for which the target mRNA inhibition turned out to be 40%.
For ACGAAACTCCCCCATT (sugars k3 d10 k3, PS), the target mRNA inhibition worked out at 36%.
As to CGTGAAAACCCACTCT (sugars k3 d10 k3, PS), the target mRNA inhibition is -6%.
Take GGGATTTGAACCCCGT (sugars k3 d10 k3, PS): the target mRNA inhibition is -1%.
The result for GGAGATCAGCTTCCGC (sugars k3 d10 k3, PS) reads -7%; that for CAACTGGAAGCTCCTT (sugars k3 d10 k3, PS), 23%; that for ATTTAAGGCCTTCCAA (sugars k3 d10 k3, PS), 30%.
On to ACAGATTAGTAGTCAA (sugars k3 d10 k3, PS), for which the target mRNA inhibition was found to be 9%.
In the case of TTACACATCCAAACTC (sugars k3 d10 k3, PS) it was 1%; in that of CAACCCACCAAAGACC (sugars k3 d10 k3, PS), 2%; in that of TTCTTCGGTTAAAAAT (sugars k3 d10 k3, PS), 2%.
The result for CATATTGCCGACCTCA (sugars k3 d10 k3, PS) reads 43%; that for TTCTATAGTCTGAAGA (sugars k3 d10 k3, PS), 14%; that for ACCTTAGGATAATAGC (sugars k3 d10 k3, PS), 39%.
For the sequence AAACCGATTATGGATC (sugars k3 d10 k3, PS), the target mRNA inhibition was found to be 3%.
For the sequence AACTCCAAGAACTAGC (sugars k3 d10 k3, PS), the target mRNA inhibition worked out at 30%.
As to TCCCACCCAGCATTAC (sugars k3 d10 k3, PS), the target mRNA inhibition worked out at 27%.
TTAGTAACCTATTGAC (sugars k3 d10 k3, PS): the target mRNA inhibition was 34%.
In the case of TGTCAATAGTACTATA (sugars k3 d10 k3, PS) it was 18%.
The result for ATTCGATCACCTTCCG (sugars k3 d10 k3, PS) reads 19%; that for CAGCACAGCGGTACAC (sugars k3 d10 k3, PS), 7%; that for GTGGCAAAATGGCGGA (sugars k3 d10 k3, PS), 21%.
In the case of CAAGACCAAACTGCAG (sugars k3 d10 k3, PS) it was -28%; in that of TCCAGGATTAATGTAG (sugars k3 d10 k3, PS), 48%.
